The experiment concerns tetrabenazine-induced sedation and depression in mice. The experiment is described as follows: Antagonism of tetrabenazine-induced depression in mice orally at 1 hour post-drug. The experiment is classed as in vivo, Carworth CF1 S female mice. Particulars: Mus musculus, oral, 1 hour post-drug (30 minutes after tetrabenazine 32 mg/kg intraperitoneally). The source says: A standard procedure for detecting and comparing the antidepressant activity of compounds in this series for which there is good correlation with human efficacy is the prevention of tetrabenazine-induced sedation and depression in mice. (Everett, "The Dopa Response Potentiation Test and Its Use in Screening for Antidepressant Drugs", pp. 164-167 in "Antidepressant Drugs" [Proceedings of the First International Symposium], S. Garattini and M. N. G. Dukes, eds., 1967.). Groups of 10 Carworth CF1 S female mice, 18-21 g. each, were fasted 1.5 hours and were intubated with antagonist compounds at oral doses of 0, 5, 25, and 125 mg/kg or 0, 1, 3, 9, 27, and 81 mg/kg in 0.20 ml. of 1% Methocel (methylcellulose). The mice were challenged 30 minutes later with tetrabenazine (as the methane-sulfonate), 32 mg/kg intraperitoneally (dissolved in 0.20 ml. 0.05M KCl at pH 2.0). One hour after antagonist (30 minutes after tetrabenazine), the mice were examined for signs of exploratory activity and ptosis (eyelid closure). Normal exploratory activity (relief from sedation) was recorded when a mouse lifted by the tail from a group of 10 in a testing box and placed on a stainless steel testing box lid (12.5 × 8 inches with 0.33 inch mesh) either turned its head horizontally 30° in both directions or moved to the edge of the screen within 10 seconds after being placed on the screen. Relief from ptosis was recorded when exactly 2 seconds after placing the mouse facing the observer, lid closure was less than 50% in both eyes. The following table gives results. |ANTAGONISM OF TETRABENAZINE-INDUCED |DEPRESSION IN MICE ORALLY AT 1 HOUR |POST-DRUG

[1] abbreviates: lid closure less than 50% in both eyes, read-out: ED50 for prevention of ptosis.
Where [2] appears, read: relief from sedation (exploratory activity), read-out: ED50 for prevention of exploratory loss.

SMILES strings stand for the structures. Read-outs that look alike come from different tables or passages of the source. Some results are limits rather than exact numbers.

On to `CCN1CCC2c3ccccc3N(c3ccccc3)C2C1C` (stereo not drawn) [Ia], for which the ED50 (usually the midpoint of the dose-response relation) under setting [1] was 3 mg/kg and the ED50 under setting [2] is 4.2 mg/kg.
The corresponding values for `CCCN1CCC2c3ccccc3N(c3ccccc3)C2C1C` (stereo not drawn) [Ic] are 14 mg/kg and 38 mg/kg.
For `CC(C)N1CCC2c3ccccc3N(c3ccccc3)C2C1C` (stereo not drawn) [Id], the ED50 was 11.2 mg/kg under setting [1] and 19 mg/kg under setting [2].
For the compound `CN(C)CCC=C1c2ccccc2CCc2ccccc21` [Amitriptyline, amitriptyline, reference compound], the ED50 was 1.7 mg/kg under setting [1] and 4.7 mg/kg under setting [2].
The corresponding values for `CCN1CC2C(CC1C)c1ccccc1N2c1ccccc1` (stereo not drawn) [Ij] are less than 5 mg/kg and less than 5 mg/kg.
`CCC1C2C(CCN1CC)c1ccccc1N2c1ccccc1` (stereo not drawn) [If]: the ED50 by setting is: under setting [1], 27 mg/kg; under setting [2], 38 mg/kg.
With `CCC1C2C(CCN1C)c1ccccc1N2c1ccccc1` (stereo not drawn) [Ie], the ED50 reads like this: under setting [1], 9.1 mg/kg; under setting [2], 11.2 mg/kg.
Take `CC1C2C(CCN1C)c1ccccc1N2c1ccccc1` (stereo not drawn) [Ib]: the ED50 amounted to 16 mg/kg under setting [1] and 38 mg/kg under setting [2].
Consider `CC1NCCC2c3ccccc3N(c3ccccc3)C12` (stereo not drawn) [Ig], for which the ED50 is 25 mg/kg under setting [1] and 31 mg/kg under setting [2].

These data come from US4091102A, “Anti-depressant trans-hexahydropyrido[3,4-b]indoles” (Endo Laboratories, Inc., priority 1976, dated 1978).
